Cc1c(Cl)cccc1Nc1ccccc1C(=O)O
solubility (mole fraction)
Details | 283.15 K | 288.15 K | 293.15 K | 298.15 K | 303.15 K | 308.15 K | 313.15 K | 318.15 K | 323.15 K | 328.15 K
in 1,4-dioxane | – | 0.0289 | 0.032 | 0.0356 | 0.0399 | 0.0444 | 0.0492 | 0.0548 | 0.0599 | 0.0654
in DMF | 0.00652 | 0.00892 | 0.0117 | 0.0152 | 0.019 | 0.0241 | 0.0303 | 0.0374 | 0.0454 | 0.055
in DMSO | – | – | 0.0144 | 0.0186 | 0.0229 | 0.0288 | 0.0351 | 0.042 | 0.0495 | 0.0571
in acetonitrile | 0.000228 | 0.000339 | 0.000463 | 0.000618 | 0.000808 | 0.00107 | 0.00137 | 0.00177 | 0.00221 | 0.00282
in cyclohexane | 2.97e-05 | 4.31e-05 | 5.94e-05 | 8.23e-05 | 0.000116 | 0.000159 | 0.000216 | 0.000292 | 0.000391 | 0.000515
in ethyl acetate | 0.00603 | 0.00799 | 0.0102 | 0.0127 | 0.0162 | 0.0201 | 0.0252 | 0.0314 | 0.0383 | 0.0458
in ethyl formate | 0.00169 | 0.00239 | 0.00311 | 0.00405 | 0.00506 | 0.0066 | 0.00833 | 0.01 | 0.0131 | 0.0159
in ethylene glycol | 8.74e-05 | 0.000132 | 0.000177 | 0.000233 | 0.000311 | 0.000406 | 0.000546 | 0.000717 | 0.000931 | 0.00122
in n-heptanol | 0.00557 | 0.00726 | 0.00924 | 0.0114 | 0.0142 | 0.0171 | 0.0214 | 0.0257 | 0.0306 | 0.0366
in n-hexanol | 0.00435 | 0.00581 | 0.00758 | 0.0094 | 0.0118 | 0.0144 | 0.0176 | 0.021 | 0.0251 | 0.0295
in n-pentanol | 0.00335 | 0.00432 | 0.00575 | 0.00741 | 0.00916 | 0.0112 | 0.0138 | 0.0169 | 0.0206 | 0.0243
in n-pentyl acetate | 0.00558 | 0.00726 | 0.00931 | 0.0116 | 0.0146 | 0.0179 | 0.0218 | 0.0261 | 0.031 | 0.0371

Reference: BigSolDB 2.1
